Experimental data from ChEMBL document CHEMBL5608197, “Optimization of pyrazolopyridine 4-carboxamides with potent antimalarial activity for which resistance is associated with the P. falciparum transporter ABCI3” (Eur J Med Chem, 2024).
Values after ≈ are worked out from the molar mass of the structure shown.

Experiments:
[1] = tested on: Plasmodium falciparum; assay: Antiplasmodial activity against Plasmodium falciparum Dd2 infected in erythrocytes assessed as inhibition of parasite growth incubated for 72 hrs by [3H]hypoxanthine incorporation based microbeta counting analysis; type: functional, organism-based; settings: Dd2, Erythrocyte
[2] = tested on: Plasmodium falciparum; assay: Antiplasmodial activity against multidrug-resistant Plasmodium falciparum Dd2 harboring DHODH-C276F mutant infected in erythrocytes assessed as inhibition of parasite growth incubated for 72 hrs by [3H]hypoxanthine incorporation based microbeta counting analysis; type: functional, organism-based; settings: Dd2, Erythrocyte
[3] = tested on: Plasmodium falciparum; assay: Antiplasmodial activity against multidrug-resistant Plasmodium falciparum Dd2 harboring PI4K-S743F mutant infected in erythrocytes assessed as inhibition of parasite growth incubated for 72 hrs by [3H]hypoxanthine incorporation based microbeta counting analysis; type: functional, organism-based; settings: Dd2, Erythrocyte
[4] = tested on: Plasmodium falciparum; assay: Antiplasmodial activity against asexual blood stage of Plasmodium falciparum 3D7 assessed as inhibition of parasite growth incubated for 72 hrs by LDH assay; type: functional, organism-based; settings: 3D7, 72 h
[5] = Intrinsic clearance in rat hepatocytes at 1 uM measured per million cells for 90 mins by LC-MS/MS analysis; type: ADME, cell-based, Hepatocyte; settings: read-out: CLH
[6] = Cytotoxicity against human HepG2 cells assessed as inhibition of cell growth incubated for 48 hrs by CellTiter-Glo luminescence assay; type: toxicity, cell-based
[7] = Aqueous solubility of the compound in PBS buffer at pH 7.4 at 200 uM incubated for 2 hrs under shaking condition by miniaturized shake flask method; type: physicochemical
[8] = Lipophilicity, elogD of the compound in 1-Octanol/PBS at pH 7.4 at 7.5 uM incubated for 2 hrs by miniaturized shake flask method; type: physicochemical
[9] = Intrinsic clearance in human liver microsomes at 1 uM measured for 60 mins by LC-MS/MS analysis; type: ADME, Microsome; settings: read-out: CLH
[10] = tested on: Plasmodium falciparum; assay: Antiplasmodial activity against ring stage of Plasmodium falciparum 3D7 expressing ABCI3-HAreg assessed as inhibition of parasite proliferation incubated for 72 hrs in presence of ABCI3 inhibitor, GlcN by SYBR dye based flow cytometry; type: functional, organism-based; settings: 3D7, 72 h
[11] = tested on: Plasmodium falciparum; assay: Antiplasmodial activity against multidrig-resistant Plasmodium falciparum Dd2 harboring eEF2Y-I86N mutant infected in erythrocytes assessed as inhibition of parasite growth incubated for 72 hrs by [3H]hypoxanthine incorporation based microbeta counting analysis; type: functional, organism-based; settings: Dd2, Erythrocyte
[12] = tested on: Plasmodium falciparum; assay: Antiplasmodial activity against multidrug-resistant Plasmodium falciparum Dd2 harboring CARL-I1139K mutant infected in erythrocytes assessed as inhibition of parasite growth incubated for 72 hrs by [3H]hypoxanthine incorporation based microbeta counting analysis; type: functional, organism-based; settings: Dd2, Erythrocyte
[13] = tested on: Plasmodium falciparum; assay: Antiplasmodial activity against multidrug-resistant Plasmodium falciparum Dd2 harboring cyt b-I22L mutant infected in erythrocytes assessed as inhibition of parasite growth incubated for 72 hrs by [3H]hypoxanthine incorporation based microbeta counting analysis; type: functional, organism-based; settings: Dd2, Erythrocyte

SMILES | EC50 [4] [µM] | CC50 at 48 h [6] [µM] | other results
Cc1cc(Nc2ccc(S(F)(F)(F)(F)F)cc2)n2nc(C(C)(F)F)nc2n1 [DSM-265] |  |  | EC50 [1]: 0.006 µM; EC50 [2]: 0.1 µM
CS(=O)(=O)c1ccc(-c2cnc(N)c(-c3ccc(C(F)(F)F)nc3)c2)cc1 [MMV-048] |  |  | EC50 [1]: 0.012 µM; EC50 [3]: 0.09 µM
Cc1nn(C(C)C)c2nc(C(C)C)cc(C(=O)Nc3nnc4ccccn34)c12 | 0.86 |  | 
COc1nn(C(C)(C)C)c2nc(C3CC3)cc(C(=O)N3CCOc4ccccc43)c12 | 0.123 | > 40 | hepatocyte CLint at 1 µM [5]: 19 µL/min/1e6 cells; solubility thermodynamic at 2 h, 200 µM [7]: < 2.5 µM; logD at 2 h, 7.5 µM [8]: > 6.4; microsomal CLint at 1 µM [9]: 300 µL/min/mg
Cc1nn(C(C)(C)C)c2nc(C3CC3)cc(C(=O)N3CCOc4ncccc43)c12 | 2.5 | > 10 | 
Cc1n[nH]c2nc(C3CC3)cc(C(=O)N3CCOc4ccccc43)c12 | > 10 |  | 
Cc1cc(C(=O)N2CCOc3ccccc32)c2c(C)nn(C(C)(C)C)c2n1 | 5.63 | > 40 | 
CCc1nn(C(C)(C)C)c2nc(C3CC3)cc(C(=O)N3CCOc4ccccc43)c12 | 0.288 | > 10 | 
Cc1nn(C(C)(C)C)c2nc(-c3ccccc3)cc(C(=O)N3CCOc4ccccc43)c12 | 0.453 | > 40 | 
Cc1nn(C(C)(C)C)c2nc(C3CC3)cc(C(=O)N3CCNc4ccccc43)c12 | 0.181 | > 40 | hepatocyte CLint at 1 µM [5]: 123 µL/min/1e6 cells; solubility thermodynamic at 2 h, 200 µM [7]: 3.5 µM (≈ 1.36 µg/mL); logD at 2 h, 7.5 µM [8]: 4.8; microsomal CLint at 1 µM [9]: 471 µL/min/mg
CC(C)c1nn(C(C)(C)C)c2nc(C3CC3)cc(C(=O)N3CCOc4ccccc43)c12 | 0.58 | > 40 | 
Cc1nn(C)c2nc(C3CC3)cc(C(=O)N3CCOc4ccccc43)c12 | > 10 |  | 
Cc1cc(C)c(NC(=O)c2cc(C)nc3c2c(C)nn3C)c(Cl)c1 | 0.17 | > 40 | 
CC(C)(C)n1nc(-c2ccccc2)c2c(C(=O)N3CCOc4ccccc43)cc(C3CC3)nc21 | 2.18 | > 40 | 
CC(C)(C)n1ncc2c(C(=O)N3CCOc4ccccc43)cc(C3CC3)nc21 | 0.49 | > 40 | 
COc1ccccc1NC(=O)c1cc(C2CC2)nc2c1c(C)nn2C(C)(C)C | 2.3 | > 40 | 
COc1ccccc1CNC(=O)c1cc(C2CC2)nc2c1cnn2C(C)C | 0.68 | > 40 | 
COc1cc(C(=O)N2CCOc3ccccc32)c2c(C)nn(C(C)(C)C)c2n1 | 1.04 | > 40 | 
Cc1nn(C(C)(C)C)c2nc(C3CC3)cc(C(=O)N3CCOc4ccc(F)cc43)c12 | 0.13 | 9.67 | hepatocyte CLint at 1 µM [5]: 22 µL/min/1e6 cells; solubility thermodynamic at 2 h, 200 µM [7]: 2.8 µM (≈ 1.14 µg/mL); logD at 2 h, 7.5 µM [8]: 5.8; microsomal CLint at 1 µM [9]: 100 µL/min/mg
COc1nn(C(C)(C)C)c2nc(C3CC3)cc(C(=O)N3CCOc4ccncc43)c12 | 0.005 | 7.26 | hepatocyte CLint at 1 µM [5]: 87 µL/min/1e6 cells; solubility thermodynamic at 2 h, 200 µM [7]: 19 µM (≈ 7.74 µg/mL); logD at 2 h, 7.5 µM [8]: 5.1; microsomal CLint at 1 µM [9]: 423 µL/min/mg
Cc1nn(C(C)(C)C)c2nc(C3CC3)cc(C(=O)N3CCN(C)c4ccccc43)c12 | 0.257 | > 40 | hepatocyte CLint at 1 µM [5]: 65 µL/min/1e6 cells; solubility thermodynamic at 2 h, 200 µM [7]: 3 µM (≈ 1.21 µg/mL); logD at 2 h, 7.5 µM [8]: 5.4; microsomal CLint at 1 µM [9]: 387 µL/min/mg
CCN(CC)CCCC(C)Nc1ccnc2cc(Cl)ccc12 (stereo not drawn) [CHLOROQUINE] |  |  | EC50 [10]: 0.0113 µM
Cc1nn(C(C)(C)C)c2nc(C3CC3)cc(C(=O)Nc3nnc4ccccn34)c12 | > 10 |  | 
Cc1nn(C(C)(C)C)c2nc(C3CC3)cc(C(=O)N3CCOCC3)c12 | 2.33 | > 40 | 

SMILES | EC50 [4] [µM] | CC50 at 48 h [6] [µM] | other results
O=C(NCCN1CCCC1)c1cc(-c2ccc(CN3CCOCC3)cc2)nc2ccc(F)cc12 [CABAMIQUINE] |  |  | EC50 [1]: 0.001 µM; EC50 [11]: 0.85 µM
Cc1nn(C(C)(C)C)c2nc(C3CC3)cc(C(=O)Nc3ccccc3)c12 | 3.85 | > 10 | 
Cc1nn(C(C)C)c2nc(C3CC3)cc(C(=O)N3CCOc4ccccc43)c12 | 0.31 | > 40 | hepatocyte CLint at 1 µM [5]: > 92 µL/min/1e6 cells; solubility thermodynamic at 2 h, 200 µM [7]: 10 µM (≈ 3.76 µg/mL); logD at 2 h, 7.5 µM [8]: 4.5; microsomal CLint at 1 µM [9]: 424 µL/min/mg
Cc1nn(C(C)(C)C)c2nc(C3CC3)cc(C(=O)N3CCN(C)CC3)c12 | 0.545 | > 40 | 
Cc1nn(C(C)(C)C)c2nc(C3CC3)cc(C(=O)N3CCOc4cccnc43)c12 | 0.856 | > 10 | 
CC(C)(C)n1nc(Br)c2c(C(=O)N3CCOc4ccccc43)cc(C3CC3)nc21 | 0.155 | > 40 | 
CC1(C)c2nc(-c3ccc(F)cc3)c(Nc3ccc(F)cc3)n2CCN1C(=O)CN [GANAPLACIDE] |  |  | EC50 [1]: 0.017 µM; EC50 [12]: 1.92 µM
COc1ccccc1CNC(=O)c1cc(C2CC2)nc2c1c(C)nn2C(C)(C)C | 0.463 | > 40 | 
CC(C)(C)n1nc(Cl)c2c(C(=O)N3CCOc4ccccc43)cc(C3CC3)nc21 | 0.26 | > 40 | hepatocyte CLint at 1 µM [5]: 34 µL/min/1e6 cells; solubility thermodynamic at 2 h, 200 µM [7]: < 2.5 µM; logD at 2 h, 7.5 µM [8]: > 5.9; microsomal CLint at 1 µM [9]: 155 µL/min/mg
CCc1cc(C(=O)N2CCOc3ccccc32)c2c(C)nn(C(C)(C)C)c2n1 | 0.843 | > 40 | 
COc1ccccc1N(C)C(=O)c1cc(C2CC2)nc2c1c(C)nn2C(C)(C)C | 2.36 | > 10 | 
Cc1nn(C(C)(C)C)c2nc(C3CC3)cc(C(=O)N3CCOc4cc(F)ccc43)c12 | 1.05 | > 10 | hepatocyte CLint at 1 µM [5]: 23 µL/min/1e6 cells; solubility thermodynamic at 2 h, 200 µM [7]: < 2.5 µM; logD at 2 h, 7.5 µM [8]: 5.9; microsomal CLint at 1 µM [9]: 160 µL/min/mg
Cc1nn(C(C)(C)C)c2nc(C3CC3)cc(C(=O)N3CCCCC3)c12 | 0.635 | > 40 | 
Cc1nn(C(C)(C)C)c2nc(C3CC3)cc(C(=O)N3CCc4ccccc43)c12 | 2.48 | > 40 | 
Cc1nn(C(C)(C)C)c2nc(C(C)C)cc(C(=O)N3CCOc4ccccc43)c12 | 0.74 | > 40 | 
Cc1cc(C)c(NC(=O)c2cc(C3CC3)nc3c2c(C)nn3C(C)(C)C)c(Cl)c1 | 1.13 | > 40 | 
Cc1nn(C(C)(C)C)c2nc(C3CC3)cc(C(=O)N3CCCc4ccccc43)c12 | 0.164 | > 40 | hepatocyte CLint at 1 µM [5]: 45 µL/min/1e6 cells; solubility thermodynamic at 2 h, 200 µM [7]: 2.8 µM (≈ 1.09 µg/mL); logD at 2 h, 7.5 µM [8]: 5.9; microsomal CLint at 1 µM [9]: 277 µL/min/mg
COc1nn(C(C)C)c2nc(C3CC3)cc(C(=O)N3CCOc4ccncc43)c12 | 0.015 | 28.7 | hepatocyte CLint at 1 µM [5]: > 92 µL/min/1e6 cells; solubility thermodynamic at 2 h, 200 µM [7]: 161 µM (≈ 63.3 µg/mL); logD at 2 h, 7.5 µM [8]: 3.7; microsomal CLint at 1 µM [9]: > 462 µL/min/mg
CC(C)(C)n1nc(C2CC2)c2c(C(=O)N3CCOc4ccccc43)cc(C3CC3)nc21 | 0.079 | > 10 | 
Cc1nn(C(C)(C)C)c2nc(C3CC3)cc(C(=O)N3CCOc4cnccc43)c12 | 2.07 |  | 
CC1CN(C(=O)c2cc(-c3ccccc3)nc3c2cnn3C(C)C)CCO1 (stereo not drawn) | 1 | > 40 | 
COc1cc2[nH]c(C)c(-c3ccc(Oc4ccc(OC(F)(F)F)cc4)cc3)c(=O)c2cc1Cl |  |  | EC50 [1]: 0.014 µM; EC50 [13]: 0.12 µM
Cc1nn(-c2ccccc2)c2nc(C3CC3)cc(C(=O)N3CCOc4ccccc43)c12 | 1.12 | > 40 | 
